Measured values taken from US20060160989A1, “Polypeptide useful as antiallergic/antiasthmatic activity, methods for the preparation thereof, pharmaceutical compositions containing such polypeptide and use thereof” (COUNCIL OF SCIENTIC AND INDUSTRIAL RESEARCH, priority 2002, published 2006).
Like-named read-outs stand apart in the source and are kept apart here.

Experiments:
[1] = test system: passive cutaneous anaphylaxis (PCA); assay: Passive cutaneous anaphylaxis (PCA) test in rats; assay type: in vivo; details: for % Anti-PCA activity: rats
[2] = test system: sensitised guinea pigs; assay: Aerosol test, egg-albumin, sensitised guinea pigs; assay type: in vivo
Protocol: (§1) This activity of peptide 96/199 was comarable with disodium cromoglycate (50 mg/kg ip) which is a standard antiallergic drug effective by inhalation.

[3] = test system: normal guinea pigs; assay: Aerosol test, histamine, guinea pigs; assay type: in vivo
[4] = Other pharmacological studies (cardiovascular, CNS, anti-inflammatory, diuretic); assay type: in vivo
From the text: Other Pharmacological Studies: Peptide 96-199 was further evaluated for its cardiovascular, Central Nervous System (CNS), anti-inflammatory, diuretic activities.

[5] = test system: Normal mast cells; assay: Mast cell degranulation by comp 48/80 in normal mast cells (non-immunological); assay type: in vivo, rats
From the text: (§2) Peptide 96/199 is related to the sequence of IgE Fc fragment.

[6] = test system: sensitised guinea pig ileum; assay: Antigen (egg albumin) induced contraction of sensitised guinea pig ileum (Schultz-Dale phenomenon)
Protocol: as §1

[7] = test system: Sensitised mast cells; assay: Mast cell degranulation by egg albumin in sensitised mast cells (immunological); assay type: in vivo, rats
From the text: as §2

[8] = test system: leucine *amino-peptidase; details: enzymatic hydrolysis with leucine aminopeptidase, cited from earlier work
[9] = 0.5 pro (0.1 × 5 d) mg/kg × days
[10] = 1.0 pro (0.2 × 5 d) mg/kg × days
[11] = 2.5 pro (0.5 × 5 d) mg/kg × days
[12] = 5.0 pro (1.0 × 5 d) mg/kg × days
[13] = 50.0 pro (10.0 × 5 d) mg/kg × days

L-alanyl-glycyl-glycyl-L-aspartyl-sar-L-l ys [96/199]
% Anti-PCA activity ([1]; 0.5 mg/kg PO): 43%
% Anti-PCA activity ([1]; 1.0 mg/kg PO): 48%
% Anti-PCA activity ([1]; 2.5 mg/kg PO): 74%
% Anti-PCA activity ([1]; 5.0 mg/kg PO): 82%
% Protection, Egg-albumin aerosol ([2]; 2.5 mg/kg po): 55%
% Protection, Egg-albumin aerosol ([2]; 5.0 mg/kg po): 61%
% Protection, Histamine aerosol ([3]; 2.5 mg/kg po): Nil
% Protection, Histamine aerosol ([3]; 5.0 mg/kg po): 10%
any other pharmacological activity ([4]; in vivo): devoid of any other pharmacological activity
cardiovascular, Central Nervous System (CNS), anti-inflammatory, diuretic activities ([4]; up to a dose of 10 mg/kg): No significant effects
% Protection, normal mast cells (Noninnunological: Comp. 48/80) [5, 9]: 39%
% Protection, normal mast cells (Noninnunological: Comp. 48/80) [5, 10]: 55%
% Protection, normal mast cells (Noninnunological: Comp. 48/80) [5, 11]: 77%
% Protection, normal mast cells (Noninnunological: Comp. 48/80) [5, 12]: 84%
% Protection to ileum contraction induced by egg albumin ([6]; concentration 1.0 (μg/mL)): 60%
% Protection to ileum contraction induced by egg albumin ([6]; concentration 2.0 (μg/mL)): 78%
% Protection to ileum contraction induced by egg albumin ([6]; concentration 3.0 (μg/mL)): 92%
% Protection, sensitised mast cells (Immunological: Egg albumin) [7, 9]: 34%
% Protection, sensitised mast cells (Immunological: Egg albumin) [7, 10]: 47%
% Protection, sensitised mast cells (Immunological: Egg albumin) [7, 11]: 66%
% Protection, sensitised mast cells (Immunological: Egg albumin) [7, 12]: 72%

O=C([O-])c1cc(=O)c2c(OCC(O)COc3cccc4oc(C(=O)[O-])cc(=O)c34)cccc2o1.[Na+].[Na+] [DSCG, disodium cromoglycate, reference compound]
anti PCA activity ([1]; 50 mg/kg by nasal route): 81%
% Anti-PCA activity ([1]; 50.0 mg/kg IP): 77%
% Protection, Egg-albumin aerosol ([2]; 50 mg/kg ip): 64%
% Protection, Histamine aerosol ([3]; 50 mg/kg ip): 17%
% Protection, normal mast cells (Noninnunological: Comp. 48/80) [5, 13]: 72%
% Protection to ileum contraction induced by egg albumin ([6]; concentration 1.0 (μg/mL)): No block
% Protection to ileum contraction induced by egg albumin ([6]; concentration 2.0 (μg/mL)): 18%
% Protection to ileum contraction induced by egg albumin ([6]; concentration 3.0 (μg/mL)): 59%
% Protection, sensitised mast cells (Immunological: Egg albumin) [7, 13]: 71%

leucine enkephaline
half life ([8]; with beta-Cyclodextrins): 75 m.
half life ([8]; without cyclodextrin): 44 min
